Molecules are shown by their SMILES.

Chain of Squalene monooxygenase (P52020 whole entry): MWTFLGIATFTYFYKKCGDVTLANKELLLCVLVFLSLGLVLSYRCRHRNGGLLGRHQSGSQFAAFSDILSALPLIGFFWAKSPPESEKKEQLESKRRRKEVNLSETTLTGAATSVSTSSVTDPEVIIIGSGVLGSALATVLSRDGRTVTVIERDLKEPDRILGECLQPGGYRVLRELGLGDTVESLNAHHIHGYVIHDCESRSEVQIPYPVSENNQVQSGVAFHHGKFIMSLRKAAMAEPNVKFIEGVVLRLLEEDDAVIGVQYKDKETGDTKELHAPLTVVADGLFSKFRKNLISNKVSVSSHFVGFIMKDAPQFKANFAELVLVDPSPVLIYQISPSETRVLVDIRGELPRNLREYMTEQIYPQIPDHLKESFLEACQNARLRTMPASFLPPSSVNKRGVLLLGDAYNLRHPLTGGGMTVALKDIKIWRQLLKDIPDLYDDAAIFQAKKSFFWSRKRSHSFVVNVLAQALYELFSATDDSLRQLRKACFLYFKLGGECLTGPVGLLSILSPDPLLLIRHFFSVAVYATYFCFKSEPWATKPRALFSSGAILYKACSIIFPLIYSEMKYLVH

The assay addresses Squalene monooxygenase (Rattus norvegicus, UniProt P52020). Briefly: Compound was tested for its inhibitory activity against squalene epoxidase from rat liver microsomes. (In general: Microsomes from liver hold many membrane-bound enzymes, among them those of drug oxidation.)
Broadly, the IC50 is the concentration that inhibits the measured activity by half. For the molecule `CC(C)=CCC/C(C)=C/CC/C(C)=C/CCC1OC1(C)CC/C=C(\C)CC[C@@H]1OC1(C)C` (some centres undefined), the IC50 came to 13 µM.

As to `CC(C)=CCC/C(C)=C/CC/C(C)=C/CC/C=C(\C)CCC1OC1(C)CCC=C(C)C` (centres undefined), the 50% inhibitory concentration (IC50) is 31.8 µM.

Turning to `CC(C)=CCC/C(C)=C/CC/C(C)=C/CCC1OC1(C)CC/C=C(\C)CCC=C(C)C` (centres undefined), half-maximal inhibition (IC50) was put at 50.9 µM.

The molecule `CC(C)=CCCC1(C)OC1CC/C(C)=C/CC/C=C(\C)CC/C=C(\C)CC[C@@H]1OC1(C)C` (some centres undefined) showed a concentration for half-maximal inhibition (IC50) of 0.11 µM.

These data come from ChEMBL document CHEMBL1150500, “Epoxidation of 6,7- and 10,11-oxidosqualenes by the squalene epoxidase present in rat liver microsomes” (Bioorg Med Chem Lett, 1993).
